From article PMC9114433 (Frontiers in Chemistry, 2022)
Where “and” joins values, the source holds several entries; their conditions need not be identical. Equal entries are not always repeated. Where two headings read alike, the source gives them in different places.

Columns and labels:
hHAO1 [1] = target: T1, hHAO1 (Homo sapiens, UniProt Q9UJM8); test: Amplex Red fluorescence hydrogen peroxide activity assay; assay type: biochemical; set-up: A hHAO1 construct, encoding residues Met1-Ser368, with an engineered N-terminal His6-tag; His6 (N); made in house; host or cells: E. coli BL21 (DE3); settings: for Km: substrate titration, 30 nM hHAO1; for inhibition mode with respect to glycolate: glycolate 0–500 µM, compound 0–1 mM, best fitting model in GraphPad Prism; for Vmax, Best-fit, 1 mM: Vmax in the presence of 1 mM compound, reaction rate as µM; for LLEAT (Astex lipophilic ligand efficiency score): from hHAO1 IC50; for fold increase in potency: relative to parent fragment scaffold (fragment 1 for 7, 8; fragment 2 for 9–12); for 95% CI α / α (Best-fit): mixed model inhibition fit; for 95% CI α: 95% confidence interval; for α (Best-fit): ratio between αKi (enzyme-substrate complex) and Ki (free enzyme)
T1 sequence (Q9UJM8 1-368): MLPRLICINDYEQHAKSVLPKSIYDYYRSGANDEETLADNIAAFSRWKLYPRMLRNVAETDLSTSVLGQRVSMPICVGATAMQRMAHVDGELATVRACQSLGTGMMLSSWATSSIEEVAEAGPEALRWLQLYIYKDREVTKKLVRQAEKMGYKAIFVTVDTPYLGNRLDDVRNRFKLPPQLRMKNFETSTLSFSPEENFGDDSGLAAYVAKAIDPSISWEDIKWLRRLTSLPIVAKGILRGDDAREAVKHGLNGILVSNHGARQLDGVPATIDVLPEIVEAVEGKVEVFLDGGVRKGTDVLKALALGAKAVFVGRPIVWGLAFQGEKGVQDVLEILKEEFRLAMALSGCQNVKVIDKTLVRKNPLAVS
Description: hHAO1 activity in vitro was determined using the Amplex Red fluorescence hydrogen peroxide assay (Sigma Aldrich). […] The assay buffer contained 50 mM sodium phosphate, pH 7.4, 200 mM KCl, 2 mM MgCl2, and 0.01% TritonX. Determination of suitable assay parameters is described in the Supplementary Material. […] Following 10 min incubation at room temperature, 10 µl/well of Amplex Red reagent was added. […] All reactions were performed in technical triplicates for two different preparations of hHAO1. Reaction rate, defined as total H2O2 produced by the hHAO1 reaction, was determined from the H2O2 standard curve. […] This value is defined as the […] the inhibition constant for the free enzyme (Ki) and the inhibition constant for the enzyme-substrate complex (αKi) and can be related to the initial velocity (V0), substrate concentration ([S]), inhibitor concentration ([I]), and other kinetic parameters (Km, Vmax, Ki) as follows: V0 = Vmax [S]/(Km (1 + [I]/Ki) + [S](1 + [I]/(α∗Ki))). […]
6.2 Establishing parameters for Amplex Red activity assay
HAO1 activity was measured by coupling production of H2O2 by hHAO1 with the H2O2-dependent conversion of Amplex Red to its fluorescent product resorufin by […] peroxidase (Figure S7A).
To determine an incubation period resulting in measurements being made at initial rate conditions that also generated sufficient fluorescence signal, activity of 30 nM hHAO1 in the presence of 30 μM glycolate was measured every 1.5 minutes for a period of 60 minutes ([…]).
To confirm recombinant hHAO1 used in this work was active, the reaction rate of 30 nM hHAO1 was measured across a range of glycolate (Figure S7C) and 2-hydroxypalmitate (Figure S7D) concentrations.
(1 picture or pasted object on this page, not shown here)
Figure S8: Set-up of hHAO1 Amplex Red activity assay. (A) Schematic showing how hHAO1 activity is measured using the Amplex Red assay. (B) Plot of reaction rate (hydrogen peroxide […], µM) of 30 nM hHAO1 over time (minutes) in the presence of 30 µM glycolate. (C) Plot of relative fluorescence versus hydrogen peroxide concentration showing the standard curve fitted within the linear range of the Amplex Red reagent. (D) Michaelis-Menten plot of glycolate concentration versus reaction rate for 30 nM hHAO1. Inset: chemical structure of glycolate. (E) Michaelis-Menten plot of 2-hydroxypalmitate concentration versus reaction rate for 30 nM hHAO1. Inset: chemical structure of 2-hydroxypalmitate.

mGO = test system: mGO; set-up: method as in ref Martin-Higueras, Luis-Lima, and Salido 2016; Moya-Garzón et al., 2018; settings: purified mGO; ref Martin-Higueras, Luis-Lima, and Salido 2016; Moya-Garzón et al., 2018; cited from earlier work
HAO = test system: HAO; set-up: method as in ref Chen et al., 2012; Martin-Higueras, Luis-Lima, and Salido 2016; settings: published kinetics against mGO, rat LCHAO, yeast flavocytochrome b2, hHAO1; ref Chen et al., 2012; Martin-Higueras, Luis-Lima, and Salido 2016; cited from earlier work
[2] = target: flavin dehydrogenase domain of yeast flavocytochrome b2; set-up: method as in Chen et al., 2012; settings: ref Chen et al., 2012; cited from earlier work
[3] = test system: rat LCHAO (equivalent to hHAO2); set-up: method as in Chen et al., 2012; settings: ref Chen et al., 2012; cited from earlier work
hHAO1 [4] = target: T1, hHAO1; settings: read-out: Km (substrate), published value; ref Wang et al. 2016; cited from earlier work
[5] = 30 nM hHAO1, 30 µM glycolate, log(inhibitor) vs response fit, read-out: IC50 (Best-fit)
[6] = 30 µM glycolate, 95% confidence interval of fit, read-out: 95% CI IC50
[7] = 95% confidence interval of fit, read-out: 95% CI Ki
[8] = compound 0–1 mM vs glycolate 0–500 µM, read-out: Ki (Best-fit)
[9] = at 1 mM compound, glycolate titration

inhibition mode with respect to glycolate (hHAO1 [1]) | IC50 (hHAO1 [1]; [5]) | IC50 (hHAO1 [1]; [6]) | Ki (hHAO1 [1]; [7]) | Vmax, Best-fit, 1 mM (hHAO1 [1]) | Ki (hHAO1 [1]; [8]) | LLEAT (Astex lipophilic ligand efficiency score) (hHAO1 [1]) | fold increase in potency (hHAO1 [1]) | SMILES | other results
 |  |  |  |  |  |  |  | CCCCCCCCCCCCCCC(O)C(=O)O (centres unmarked) [2-hydroxypalmitate] | fold higher Km (hHAO1 [1]; relative to glycolate): 100 fold; Km (hHAO1 [1]; read-out: Km apparent (substrate)): 1200 ± 400 µM
 | 153 µM | 110 to 215 µM | 56.7 to 64.2 µM | 47.76 µM | 60.4 µM | 0.40 kcal/mol | 5 fold | O=C(NO)c1n[nH]c2ccccc12 [Compound 7] | 
competitive inhibition | 81 µM and 81.3 µM | 57.1 to 117 µM | 37.7 to 44.3 µM | 54.60 µM | 40.9 µM | 0.47 kcal/mol | 5 fold | NCCNC(=O)c1n[nH]c2ccccc12 [Compound 8] | 
 | 93 µM and 93.3 µM | 48.1 to 193 µM | 113 to 126 µM | 56.25 µM | 119 µM | 0.71 kcal/mol | more than 10 fold | Nc1c(C(=O)O)[nH]c(=O)[nH]c1=O [Compound 9] | fold lower potency (hHAO1 [1]; relative to compound 12): 3 fold
 | 60 µM and 59.8 µM | 39.5 to 92 µM | 157 to 177 µM | 56.47 µM | 167 µM | 0.77 kcal/mol | more than 10 fold | Cn1cc(N)c(=O)n(C)c1=O [Compound 10] | 
 | 40 µM and 39.8 µM | 22.8 to 71.1 µM | 219 to 248 µM | 55.85 µM | 233 µM | 0.88 kcal/mol | more than 10 fold | Cn1cc(N)c(=O)[nH]c1=O [Compound 11] | 
 | 27 µM and 27.4 µM | 19.9 to 38 µM | 141 to 156 µM | 54.05 µM | 148 µM | 0.89 kcal/mol | more than 10 fold | CC1=NC(=O)NC(=O)C1N (centres unmarked) [Compound 12] | 
mixed model inhibition | 44 µM and 43.8 µM | 27.4 to 71.4 µM | 59.1 to 82.9 µM | 27.28 µM | 69.7 µM | 0.30 kcal/mol |  | O=C(Nc1cccnc1)N1CCN(c2ccccc2O)CC1 [Compound 13] | fold increase in Km (hHAO1 [1]; [9]): up to 4 fold; 95% CI α (hHAO1 [1]): 7.84–27.32; α (Best-fit) (hHAO1 [1]): 13.27
mixed model inhibition | 158 µM | 100 to 256 µM | 83.1 to 119 µM | 43.12 µM | 98.9 µM | 0.25 kcal/mol |  | Cc1cc(NC(=O)N2CCN(c3cccc(O)c3)CC2)no1 [Compound 14] | fold increase in Km (hHAO1 [1]; [9]): up to 4.9 fold; fold reduction in Vmax (hHAO1 [1]; [9]): up to 1.7 fold; 95% CI α (hHAO1 [1]): 9.41–59.28; α (Best-fit) (hHAO1 [1]): 18 and 18.4
 | 420 µM |  |  |  |  |  |  | Cn1nc(C(N)=O)c2ccccc21 [Fragment 1] | 
 |  |  |  |  |  |  |  | O=C(C1CC1)N1CCN(c2ccc(F)cc2)CC1 [Fragment 3] | inhibition at 1000 µM (hHAO1 [1]; 1 mM fragment): 2%; inhibition at 10000 µM (hHAO1 [1]; 10 mM fragment): 19%
 |  |  |  |  |  |  |  | O=C(O)CO [glycolate] | Km (hHAO1 [1]; read-out: Km (substrate)): 18.9 ± 0.8 µM; Km (hHAO1 [4]): 74.5 µM

SMILES | inhibition mode with respect to glycolate (hHAO1 [1]) | IC50 (hHAO1 [1]; [5]) | IC50 (hHAO1 [1]; [6]) | Ki (hHAO1 [1]; [7]) | Vmax, Best-fit, 1 mM (hHAO1 [1]) | Ki (hHAO1 [1]; [8]) | LLEAT (Astex lipophilic ligand efficiency score) (hHAO1 [1]) | fold increase in potency (hHAO1 [1]) | other results
O=C(O)c1nnsc1Sc1ccc(Cl)cc1 [CCPST, 4-carboxy-5-[(4-chlorophenyl)sulfanyl]-1,2,3-thiadiazole] | competitive inhibition mode |  |  |  |  |  |  |  | IC50 (mGO): 43 to 198 µM; inhibition mode (HAO): non-competitive inhibition mode; IC50 [2]: 6 µM; IC50 [3]: 3.6 µM
